Data: patent publication US5496830A (Johns Hopkins University, priority 1994, dated 1996)
Read-outs that look alike come from different tables or passages of the source.

Tests used:
[1] = tested on: T. brucei brucei (MiTat 1.2, strain 427, variant 221); experiment: In vitro inhibition of blood stream form trypanosomes, acid phosphatase detection of survivors; type: cell-based; conditions: Trypanosoma brucei, read-out: Trypanosome EC50
Procedure: Camptothecin compounds were tested against blood stream form trypanosomes in vitro. T. brucei brucei (MiTat 1.2, strain 427, variant 221) were cultured at 37° C. according to the methods of Carruthers and Cross (Carruthers, V. B., and Cross, G. A. M. (1992) Proc. Natl. Acad. Sci. USA., 89:8818-8821) with the substitution of phenol red-free Iscoves Modified Dulbecco's Medium (Mediatech, Inc.) in the HMI-9 culture medium. […] Exponentially growing trypanosomes were diluted to 10^5 cells/ml with prewarmed medium.
The plate was incubated at 37° C. for 24 h in a humidified incubator maintained with 5% CO2.
Surviving trypanosomes were detected by the acid phosphatase method (Martin, A. and Clynes, M. (1991) In Vitro Cell. Dev. Biol. 27A:183-184). p-Nitrophenol phosphate (20 μl of 20 mg/ml; solubilized in 1 M sodium acetate, pH 5.5; 1% Triton X-100) was added to each 200 μl sample and mixed. The plate was then incubated for 3-4 h at 37° C. The production of p-nitrophenol was measured at 405 nm on a microplate reader (UVmax kinetic microplate reader, Molecular Devices). Quadruplicate values were averaged and blanks (complete reaction mixture without trypanosomes) were subtracted for each drug concentration.

topoisomerase I [2] = target: T1, topoisomerase I (Homo sapiens, UniProt P11387); experiment: Topoisomerase I inhibition relative to 20(S)-camptothecin (separate independent experiments); type: biochemical; conditions: T1 relative to 20(S)CPT
T1 sequence (P11387 1-765): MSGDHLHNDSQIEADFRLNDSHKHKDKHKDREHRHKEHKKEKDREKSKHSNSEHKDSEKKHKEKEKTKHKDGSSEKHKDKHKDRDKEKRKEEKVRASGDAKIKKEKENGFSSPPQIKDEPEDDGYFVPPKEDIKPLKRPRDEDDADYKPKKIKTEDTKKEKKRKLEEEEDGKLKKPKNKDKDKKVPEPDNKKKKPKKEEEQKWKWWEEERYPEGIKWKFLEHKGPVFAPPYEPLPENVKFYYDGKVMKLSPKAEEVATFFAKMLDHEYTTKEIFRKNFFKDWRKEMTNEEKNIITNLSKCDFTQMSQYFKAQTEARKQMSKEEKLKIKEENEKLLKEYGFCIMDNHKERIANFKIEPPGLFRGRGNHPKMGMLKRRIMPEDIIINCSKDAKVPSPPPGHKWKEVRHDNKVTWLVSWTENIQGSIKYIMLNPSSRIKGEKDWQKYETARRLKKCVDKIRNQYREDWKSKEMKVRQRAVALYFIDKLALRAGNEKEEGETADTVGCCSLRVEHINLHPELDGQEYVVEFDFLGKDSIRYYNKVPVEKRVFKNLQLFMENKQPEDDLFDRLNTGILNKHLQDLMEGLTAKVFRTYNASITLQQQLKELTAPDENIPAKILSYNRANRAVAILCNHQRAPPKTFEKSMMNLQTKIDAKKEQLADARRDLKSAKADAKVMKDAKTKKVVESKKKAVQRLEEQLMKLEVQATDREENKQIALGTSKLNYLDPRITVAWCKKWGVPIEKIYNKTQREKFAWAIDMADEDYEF

topoisomerase I [3] = target: T2, topoisomerase I (Bos taurus, UniProt F1MN93); experiment: Topoisomerase I inhibition by the cleavable complex assay of Hsiang et al.; type: biochemical; conditions: for T-1 Inhibition IC50: cleavable complex assay of Hsiang et al.
T2 sequence (F1MN93 1-767): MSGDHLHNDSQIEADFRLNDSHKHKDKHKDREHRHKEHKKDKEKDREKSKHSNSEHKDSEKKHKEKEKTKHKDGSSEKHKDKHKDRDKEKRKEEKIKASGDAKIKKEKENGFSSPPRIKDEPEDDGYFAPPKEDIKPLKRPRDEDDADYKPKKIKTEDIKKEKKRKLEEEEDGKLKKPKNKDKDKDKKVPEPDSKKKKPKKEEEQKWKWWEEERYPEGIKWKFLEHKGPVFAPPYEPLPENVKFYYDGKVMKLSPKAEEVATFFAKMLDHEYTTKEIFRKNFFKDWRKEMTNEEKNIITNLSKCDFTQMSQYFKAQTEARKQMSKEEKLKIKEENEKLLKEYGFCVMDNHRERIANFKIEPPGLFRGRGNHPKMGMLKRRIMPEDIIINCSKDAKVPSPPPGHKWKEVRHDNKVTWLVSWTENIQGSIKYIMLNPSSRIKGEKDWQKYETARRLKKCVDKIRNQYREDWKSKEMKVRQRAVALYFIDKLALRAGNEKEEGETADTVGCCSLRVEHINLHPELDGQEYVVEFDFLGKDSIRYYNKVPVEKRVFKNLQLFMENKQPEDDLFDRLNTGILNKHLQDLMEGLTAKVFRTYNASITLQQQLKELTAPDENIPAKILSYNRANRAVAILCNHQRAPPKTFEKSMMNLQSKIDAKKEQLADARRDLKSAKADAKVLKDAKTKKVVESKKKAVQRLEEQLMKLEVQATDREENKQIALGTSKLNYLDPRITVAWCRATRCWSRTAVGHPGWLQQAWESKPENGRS

[4] = blood stream form T. brucei, 24 h at 37° C., acid phosphatase method

| Compound | EC50 ([1]; 24 h) | Relative Potency T-1 Inhibition (topoisomerase I [2]) | EC50 [1, 4] | IC50 (topoisomerase I [3]) | T-1 Inhibition IC50 (topoisomerase I [3]) |
| --- | --- | --- | --- | --- | --- |
| CC[C@@]1(O)C(=O)OCc2c1cc1n(c2=O)Cc2cc3c([N+](=O)[O-])c4c(cc3nc2-1)OCO4 [9-Nitro-10,11-methylenedioxy-20(S)-CPT] | 400 nM | 3 | – | – | – |
| CC[C@@]1(OC(=O)CN)C(=O)OCc2c1cc1n(c2=O)Cc2cc3ccccc3nc2-1 [20-Glycinate-20(S)-CPT] | – | – | 5100 nM | – | – |
| CCc1c2c(nc3cccc(N)c13)-c1cc3c(c(=O)n1C2)COC(=O)[C@]3(O)CC [7-Ethyl-9-amino-20(S)-CPT, 7-ethyl-9-amino-20(S)-camptothecin] | 910 nM | 5 | – | – | – |
| CC[C@@]1(O)C(=O)OCc2c1cc1n(c2=O)Cc2cc3cc4c(cc3nc2-1)OCO4 [10,11-MD-20(S)-CPT, 10,11-methylenedioxy-20(S)-camptothecin] | 210 nM | 10 | – | 30 nM | – |
| CCc1c2c(nc3ccccc13)-c1cc3c(c(=O)n1C2)COC(=O)[C@]3(O)CC [7-Ethyl-20(S)-CPT, 7-ethyl-20(S)-camptothecin] | 770 nM | 3 | – | – | – |
| CCc1c2c(nc3cc4c(c([N+](=O)[O-])c13)OCO4)-c1cc3c(c(=O)n1C2)COC(=O)[C@]3(O)CC [7-ethyl-9-nitro-10,11-methylenedioxy-20(S)-camptothecin] | 210 nM | 5 | – | – | – |
| CCc1c2c(nc3cc4c(c(N)c13)OCO4)-c1cc3c(c(=O)n1C2)COC(=O)[C@]3(O)CC [7-ethyl-9-amino-10,11-methylenedioxy-20(S)-camptothecin] | 60 nM | 10 | – | – | – |
| CC[C@@]1(O)C(=O)OCc2c1cc1n(c2=O)Cc2cc3cc([N+](=O)[O-])ccc3nc2-1 [10-Nitro-20(S)-CPT] | 1750 nM | – | – | – | – |
| CC[C@@]1(O)C(=O)OCc2c1cc1n(c2=O)Cc2cc3c(Cl)cccc3nc2-1 [9-Chloro-20(S)-CPT, 9-chloro-20(S)-camptothecin] | 890 nM | – | – | 90 nM | – |
| CC[C@@]1(O)C(=O)OCc2c1cc1n(c2=O)Cc2cc3c(N)cccc3nc2-1 [9-Amino-20(S)-CPT, 9-amino-20(S)-camptothecin] | – | 2 | 870 nM | – | – |
| CCCc1c2c(nc3ccccc13)-c1cc3c(c(=O)n1C2)COC(=O)[C@]3(O)CC [7-Propyl-20(S)-CPT, 7-propyl-20(S)-camptothecin] | 770 nM | 2 | – | – | – |
| CC[C@@]1(O)C(=O)OCc2c1cc1n(c2=O)Cc2cc3cccc(N)c3nc2-1 [12-Amino-20(S)-CPT] | 22500 nM | – | – | – | inactive |
| CCc1c2c(nc3ccc([N+](=O)[O-])cc13)-c1cc3c(c(=O)n1C2)COC(=O)[C@]3(O)CC [7-Ethyl-10-nitro-20(S)-CPT, 7-ethyl-10-nitro-20(S)-camptothecin] | 600 nM | 4 | – | – | – |
| CC[C@@]1(O)C(=O)OCc2c1cc1n(c2=O)Cc2cc3cc(Cl)ccc3nc2-1 [10-Chloro-20(S)-CPT, 10-chloro-20(S)-camptothecin] | 1770 nM | – | – | – | – |
| CC[C@@]1(O)C(=O)OCc2c1cc1n(c2=O)Cc2cc3cc(N)ccc3nc2-1 [10-Amino-20(S)-CPT, 10-amino-20(S)-camptothecin] | 1200 nM | 2 | – | – | – |
| CC[C@@]1(O)C(=O)OCc2c1cc1n(c2=O)Cc2cc3ccccc3nc2-1 [20(S)-CPT, 20(S)-camptothecin] | 1550 nM | 1 | – | – | – |
| CCC1(OC(=O)CN)C(=O)OCc2c1cc1n(c2=O)Cc2cc3cc4c(cc3nc2-1)OCO4 (racemic) [10,11-MD-20-Glycinate-20(RS)-CPT] | – | – | 920 nM | – | – |
| CC[C@@]1(O)C(=O)OCc2c1cc1n(c2=O)Cc2cc3c(N)c4c(cc3nc2-1)OCO4 [9-Amino-10,11-MD-20(S)-CPT, 9-amino-10,11-methylenedioxy-20(S)-camptothecin] | 180 nM | – | – | 50 nM | – |
| CCc1c2c(nc3cc4c(cc13)OCO4)-c1cc3c(c(=O)n1C2)COC(=O)[C@]3(O)CC [7-Ethyl-10,11-methylenedioxy-20(S)-CPT, 7-ethyl-10,11-methylenedioxy-20(S)-camptothecin] | 60 nM | 12 | – | – | – |
| CCc1c2c(nc3ccc(N)cc13)-c1cc3c(c(=O)n1C2)COC(=O)[C@]3(O)CC [7-Ethyl-10-amino-20(S)-CPT, 7-ethyl-10-amino-20(S)-camptothecin] | 620 nM | 5 | – | – | – |
| CC[C@@]1(O)C(=O)OCc2c1cc1n(c2=O)Cc2cc3c([N+](=O)[O-])cccc3nc2-1 [9-Nitro-20(S)-CPT] | – | – | 1640 nM | – | – |
| CC[C@@]1(O)C(=O)OCc2c1cc1n(c2=O)Cc2c-1nc1cc3c(cc1c2C)OCO3 [7-Methyl-10,11-methylenedioxy-20(S)-CPT, 7-methyl-10,11-methylenedioxy-20(S)-camptothecin] | 40 nM | 5 | – | – | – |
| CCc1c2c(nc3cccc([N+](=O)[O-])c13)-c1cc3c(c(=O)n1C2)COC(=O)[C@]3(O)CC [7-Ethyl-9-nitro-20(S)-CPT, 7-ethyl-9-nitro-20(S)-camptothecin] | 2670 nM | 4 | – | – | – |
| CC[C@@]1(O)C(=O)OCc2c1cc1n(c2=O)Cc2cc3cc(C)ccc3nc2-1 [10-Methyl-20(S)-CPT] | 3140 nM | – | – | – | – |
| CC[C@@]1(O)C(=O)OCc2c1cc1n(c2=O)Cc2cc3ccc(N)cc3nc2-1 [11-Amino-20(S)-CPT] | 23100 nM | – | – | – | inactive |
